Measured values from patent US12679843B2, “Pyrrolopyrimidine amines as complement inhibitors” (BioCryst Pharmaceuticals, Inc., priority 2020, dated 2026).

Biological target: Factor D (Homo sapiens, UniProt P00746)
Assay: Factor D esterolytic assay (Z-Lys-SBzl thioester substrate, DTNB, 405 nm)
Assay type: biochemical
Details: substrate Z-Lys-SBzl 1.29 mM, 100 mM HEPES, 500 mM NaCl, pH 7.5, 10% DMSO, tested a minimum of three times
Method: The IC50 value of a compound (i.e., the concentration of the compound that inhibits 50% of the enzymatic activity) was calculated according to the procedure reported in U.S. Pat. No. 6,653,340 B1, e.g., column 74 (incorporated by reference).
Specifically, the compounds were dissolved in a stock solution of DMSO at 10.0 or 100 mM. A portion of this stock solution was added to assay buffer in a final volume of 50 μL. Controls included buffer alone and enzyme solutions to which DMSO was added. Substrate was added to the reaction wells immediately or after incubation at room temperature. The reaction rates were measured spectrophotometrically by the generation of product at 405 nm for 600 sec. Background absorbance at 690 nm was measured and subtracted from the absorbance at 405 nm for each well.
The reaction rate for enzyme alone was compared to the rate of enzyme in the presence of inhibitor and the percent inhibition was calculated as shown below: Percent Inhibition=[Rate without inhibitor−Rate with inhibitor)/(Rate without inhibitor)]−100 Factor D Esterolytic Assay:
An established esterolytic assay for the measurement of Factor D activity and inhibition of Factor D activity was used (Kam, C. M.; McRae, B. J.; Harper, J. W.; Niemann, M. A.; Volanakis, J. E.; Powers, J. C. Human complement proteins D. C2, and B Active site mapping with peptide thioester substrates. J Biol. Chem. 1987, 262, 3444-3451). For this assay Z-Lys-SBzl, 1.29 mM (Kim, S.; Narayana, S. V. L; Volanakis, J. E. Mutational analysis of the substrate binding site of human complement Factor D. Biochemistry, 1994, 33, 14393-14399) was used as the substrate for Factor D ([…]). Hydrolysis of this compound by Factor D liberated a free sulfhydryl group which is then reacted with 5,5′-dithiobis(2-nitrobenzoic acid) producing an intense yellow color (Habeeb, A. F. S. A. Reaction of protein sulfhydryl groups with Ellman's Reagent. Methods in Enzymol. 1976, 25, 457-464). The assays were performed in 96 well microtiter plates and rates of hydrolysis were monitored at 405 nm on a Biotek Synergy H1 plate reader. Hydrolysis rates were reported as change in mOD/min. The assay was conducted in 100 mM HEPES, 500 mM NaCl, pH 7.5 containing 10% DMSO in a final volume of 50 μL per well.
An IC50, a compound concentration which inhibits 50% of the enzymatic activity, was calculated. Compounds in the examples were tested a minimum of three times.

Sequence of Factor D (P00746 26-253): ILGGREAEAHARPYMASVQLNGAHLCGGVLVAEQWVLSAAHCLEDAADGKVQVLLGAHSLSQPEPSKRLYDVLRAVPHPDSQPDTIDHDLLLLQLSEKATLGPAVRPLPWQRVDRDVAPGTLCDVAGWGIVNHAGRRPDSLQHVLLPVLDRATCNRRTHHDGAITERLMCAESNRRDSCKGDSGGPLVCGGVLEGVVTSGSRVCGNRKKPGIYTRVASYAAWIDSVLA

Row | IC50 [nM] | Compound
1 | < 100 | Nc1ccc2c3c(N)ncnc3n(CC(=O)N3[C@@H]4C[C@@H]4C[C@H]3C(=O)Nc3cccc(Br)n3)c2c1 [Compound 18a, (1R,3S,5R)—N-(6-bromopyridin-2-yl)-2-(2-(4,7-diamino-9H-pyrimido[4,5-b]indol-9-yl)acetyl)-2-azabicyclo[3.1.0]hexane-3-carboxamide]
2 | < 100 | Nc1ncnc2c1c1ccccc1n2CC(=O)N1C[C@H](F)C[C@H]1C(=O)Nc1cccc(Br)n1 [Compound 19a, (2S,4R)-1-(2-(4-amino-9H-pyrimido[4,5-b]indol-9-yl)acetyl)-N-(6-bromopyridin-2-yl)-4-fluoropyrrolidine-2-carboxamide]
3 | < 100 | Nc1ncnc2c1c1ccccc1n2CC(=O)N1C[C@H](F)C[C@H]1C(=O)NCc1cccc(Cl)c1F [Compound 20a, (2S,4R)-1-(2-(4-amino-9H-pyrimido[4,5-b]indol-9-yl)acetyl)-N-(3-chloro-2-fluorobenzyl)-4-fluoropyrrolidine-2-carboxamide]
4 | < 100 | Cc1ccc2c(c1)c1c(N)ncnc1n2CC(=O)N1C[C@H](F)C[C@H]1C(=O)Nc1cccc(Br)n1 [Compound 21a, (2S,4R)-1-(2-(4-amino-6-methyl-9H-pyrimido[4,5-b]indol-9-yl)acetyl)-N-(6-bromopyridin-2-yl)-4-fluoropyrrolidine-2-carboxamide]
5 | < 100 | Cc1ccc2c3c(N)ncnc3n(CC(=O)N3[C@@H]4C[C@@H]4C[C@H]3C(=O)Nc3cccc(Br)n3)c2c1 [Compound 23f, (1R,3S,5R)-2-(2-(4-amino-7-methyl-9H-pyrimido[4,5-b]indol-9-yl)acetyl)-N-(6-bromopyridin-2-yl)-2-azabicyclo[3.1.0]hexane-3-carboxamide]
6 | < 100 | Cc1ccc2c3c(N)ncnc3n(CC(=O)N3[C@H](C(=O)Nc4cccc(Br)n4)C[C@@]4(C)C[C@@H]34)c2c1 [Compound 24a, (1R,3S,5R)-2-(2-(4-amino-7-methyl-9H-pyrimido[4,5-b]indol-9-yl)acetyl)-N-(6-bromopyridin-2-yl)-5-methyl-2-azabicyclo[3.1.0]hexane-3-carboxamide]
7 | < 100 | Nc1ncnc2c1c1cc(C(F)(F)F)ccc1n2CC(=O)N1C[C@H](F)C[C@H]1C(=O)NCc1cccc(Cl)c1F [Compound 25a, (2S,4R)-1-(2-(4-amino-6-(trifluoromethyl)-9H-pyrimido[4,5-b]indol-9-yl)acetyl)-N-(3-chloro-2-fluorobenzyl)-4-fluoropyrrolidine-2-carboxamide]
8 | < 100 | Nc1ncnc2c1c1cc(C(F)(F)F)ccc1n2CC(=O)N1C[C@H](F)C[C@H]1C(=O)Nc1cccc(Br)n1 [Compound 26a, (2S,4R)-1-(2-(4-amino-6-(trifluoromethyl)-9H-pyrimido[4,5-b]indol-9-yl)acetyl)-N-(6-bromopyridin-2-yl)-4-fluoropyrrolidine-2-carboxamide]
9 | < 100 | Nc1ncnc2c1c1cc(C(F)(F)F)ccc1n2CC(=O)N1[C@@H]2C[C@@H]2C[C@H]1C(=O)Nc1cccc(Br)n1 [Compound 27a, (1R,3S,5R)-2-(2-(4-amino-6-(trifluoromethyl)-9H-pyrimido[4,5-b]indol-9-yl)acetyl)-N-(6-bromopyridin-2-yl)-2-azabicyclo[3.1.0]hexane-3-carboxamide]
10 | < 100 | C[C@@]12C[C@@H](C(=O)Nc3cccc(Br)n3)N(C(=O)Cn3c4ccc(C(F)(F)F)cc4c4c(N)ncnc43)[C@@H]1C2 [Compound 28a, (1R,3S,5R)-2-(2-(4-amino-6-(trifluoromethyl)-9H-pyrimido[4,5-b]indol-9-yl)acetyl)-N-(6-bromopyridin-2-yl)-5-methyl-2-azabicyclo[3.1.0]hexane-3-carboxamide]
11 | < 100 | Nc1ncnc2c1c1ccncc1n2CC(=O)N1[C@@H]2C[C@@H]2C[C@H]1C(=O)Nc1cccc(Br)n1 [Compound 29f, (1R,3S,5R)-2-(2-(4-amino-9H-pyrido[4′,3′:4,5]pyrrolo[2,3-d]pyrimidin-9-yl)acetyl)-N-(6-bromopyridin-2-yl)-2-azabicyclo[3.1.0]hexane-3-carboxamide]
12 | < 100 | Cc1cccc2c3c(N)ncnc3n(CC(=O)N3[C@@H]4C[C@@H]4C[C@H]3C(=O)Nc3cccc(Br)n3)c12 [Compound 30f, (1R,3S,5R)-2-(2-(4-amino-8-methyl-9H-pyrimido[4,5-b]indol-9-yl)acetyl)-N-(6-bromopyridin-2-yl)-2-azabicyclo[3.1.0]hexane-3-carboxamide]
13 | < 100 | Nc1ncnc2c1c1ncccc1n2CC(=O)N1[C@@H]2C[C@@H]2C[C@H]1C(=O)Nc1cccc(Br)n1 [Compound 31f, (1R,3S,5R)-2-(2-(4-amino-9H-pyrido[2′,3′:4,5]pyrrolo[2,3-d]pyrimidin-9-yl)acetyl)-N-(6-bromopyridin-2-yl)-2-azabicyclo[3.1.0]hexane-3-carboxamide]
14 | < 100 | Nc1ncnc2c1c1cc(F)ccc1n2CC(=O)N1[C@@H]2C[C@@H]2C[C@H]1C(=O)Nc1cccc(Br)n1 [Compound 32f, (1R,3S,5R)-2-(2-(4-amino-6-fluoro-9H-pyrimido[4,5-b]indol-9-yl)acetyl)-N-(6-bromopyridin-2-yl)-2-azabicyclo[3.1.0]hexane-3-carboxamide]
15 | < 100 | Nc1ncnc2c1c1ccc(F)cc1n2CC(=O)N1[C@@H]2C[C@@H]2C[C@H]1C(=O)Nc1cccc(Br)n1 [Compound 33e, (1R,3S,5R)-2-(2-(4-amino-7-fluoro-9H-pyrimido[4,5-b]indol-9-yl)acetyl)-N-(6-bromopyridin-2-yl)-2-azabicyclo[3.1.0]hexane-3-carboxamide]
16 | < 100 | Nc1ncnc2c1c1cc(Br)ccc1n2CC(=O)N1[C@@H]2C[C@@H]2C[C@H]1C(=O)Nc1cccc(Br)n1 [Compound 34e, (1R,3S,5R)-2-(2-(4-amino-6-bromo-9H-pyrimido[4,5-b]indol-9-yl)acetyl)-N-(6-bromopyridin-2-yl)-2-azabicyclo[3.1.0]hexane-3-carboxamide]
17 | < 100 | Nc1ncnc2c1c1cccc(Br)c1n2CC(=O)N1[C@@H]2C[C@@H]2C[C@H]1C(=O)Nc1cccc(Br)n1 [Compound 35f, (1R,3S,5R)-2-(2-(4-amino-8-bromo-9H-pyrimido[4,5-b]indol-9-yl)acetyl)-N-(6-bromopyridin-2-yl)-2-azabicyclo[3.1.0]hexane-3-carboxamide]
18 | < 100 | COc1ccc2c3c(N)ncnc3n(CC(=O)N3[C@@H]4C[C@@H]4C[C@H]3C(=O)Nc3cccc(Br)n3)c2c1 [Compound 36e, (1R,3S,5R)-2-(2-(4-amino-7-methoxy-9H-pyrimido[4,5-b]indol-9-yl)acetyl)-N-(6-bromopyridin-2-yl)-2-azabicyclo[3.1.0]hexane-3-carboxamide]
19 | < 100 | COc1ccc2c3c(N)ncnc3n(CC(=O)N3[C@H](C(=O)Nc4cccc(Br)n4)C[C@@]4(C)C[C@@H]34)c2c1 [Compound 37a, (1R,3S,5R)-2-(2-(4-amino-7-methoxy-9H-pyrimido[4,5-b]indol-9-yl)acetyl)-N-(6-bromopyridin-2-yl)-5-methyl-2-azabicyclo[3.1.0]hexane-3-carboxamide]
20 | < 100 | COc1ccc2c(c1)c1c(N)ncnc1n2CC(=O)N1[C@@H]2C[C@@H]2C[C@H]1C(=O)Nc1cccc(Br)n1 [Compound 38e, (1R,3S,5R)-2-(2-(4-amino-6-methoxy-9H-pyrimido[4,5-b]indol-9-yl)acetyl)-N-(6-bromopyridin-2-yl)-2-azabicyclo[3.1.0]hexane-3-carboxamide]
21 | < 100 | COC(=O)c1ccc2c(c1)c1c(N)ncnc1n2CC(=O)N1[C@@H]2C[C@@H]2C[C@H]1C(=O)Nc1cccc(Br)n1 [Compound 39f, methyl 4-amino-9-(2-((1R,3S,5R)-3-((6-bromopyridin-2-yl)carbamoyl)-2-azabicyclo[3.1.0]hexan-2-yl)-2-oxoethyl)-9H-pyrimido[4,5-b]indole-6-carboxylate]
22 | < 100 | COC(=O)c1ccc2c(c1)c1c(N)ncnc1n2CC(=O)N1[C@H](C(=O)Nc2cccc(Br)n2)C[C@@]2(C)C[C@@H]12 [Compound 40a, methyl 4-amino-9-(2-((1R,3S,5R)-3-((6-bromopyridin-2-yl)carbamoyl)-5-methyl-2-azabicyclo[3.1.0]hexan-2-yl)-2-oxoethyl)-9H-pyrimido[4,5-b]indole-6-carboxylate]
23 | < 100 | COC(=O)c1ccc2c3c(N)ncnc3n(CC(=O)N3[C@@H]4C[C@@H]4C[C@H]3C(=O)Nc3cccc(Br)n3)c2c1 [Compound 41f, methyl 4-amino-9-(2-((1R,3S,5R)-3-((6-bromopyridin-2-yl)carbamoyl)-2-azabicyclo[3.1.0]hexan-2-yl)-2-oxoethyl)-9H-pyrimido[4,5-b]indole-7-carboxylate]
